This is an account of results in US20220089612A1, “HETEROCYCLIC COMPOUNDS AS PRMT5 INHIBITORS” (ANGEX PHARMACEUTICAL, INC., priority 2017, published 2022).

Structures are written as SMILES. A value given as a limit tells only on which side of the number the result lay.

Sequence of PRMT5:MEP50 (O14744 whole entry, species assumed): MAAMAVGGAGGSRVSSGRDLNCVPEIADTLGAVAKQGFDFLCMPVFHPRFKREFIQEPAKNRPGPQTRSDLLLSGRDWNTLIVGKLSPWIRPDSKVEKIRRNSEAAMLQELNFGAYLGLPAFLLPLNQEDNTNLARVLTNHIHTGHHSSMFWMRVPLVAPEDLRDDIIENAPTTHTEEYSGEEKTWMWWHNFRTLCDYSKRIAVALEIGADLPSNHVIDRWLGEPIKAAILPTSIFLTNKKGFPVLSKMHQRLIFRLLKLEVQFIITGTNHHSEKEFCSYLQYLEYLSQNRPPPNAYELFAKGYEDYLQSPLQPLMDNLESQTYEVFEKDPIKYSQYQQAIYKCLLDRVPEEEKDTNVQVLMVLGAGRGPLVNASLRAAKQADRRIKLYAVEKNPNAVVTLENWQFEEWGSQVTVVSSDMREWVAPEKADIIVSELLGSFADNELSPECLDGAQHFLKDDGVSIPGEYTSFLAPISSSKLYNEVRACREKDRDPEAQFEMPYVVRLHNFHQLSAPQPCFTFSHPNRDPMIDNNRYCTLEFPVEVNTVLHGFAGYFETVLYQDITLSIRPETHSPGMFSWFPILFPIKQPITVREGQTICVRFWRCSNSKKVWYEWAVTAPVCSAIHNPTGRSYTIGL
Sequence of PRMT5:MEP50 (Q9BQA1 whole entry partner, species assumed): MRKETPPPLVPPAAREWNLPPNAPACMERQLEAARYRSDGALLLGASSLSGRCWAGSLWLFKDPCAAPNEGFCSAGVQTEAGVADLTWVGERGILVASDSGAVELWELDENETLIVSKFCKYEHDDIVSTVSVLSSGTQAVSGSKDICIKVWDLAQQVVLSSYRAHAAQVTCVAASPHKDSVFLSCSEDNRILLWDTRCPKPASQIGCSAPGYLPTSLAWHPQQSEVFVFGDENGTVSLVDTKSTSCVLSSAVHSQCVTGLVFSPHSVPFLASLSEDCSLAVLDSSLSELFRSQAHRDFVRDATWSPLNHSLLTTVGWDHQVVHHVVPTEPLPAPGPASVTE

This test deals with PRMT5:MEP50 (Homo sapiens, UniProt O14744). Nature of the test: PRMT5:MEP50 Flashplate Assay. It counts as biochemical. To be noted: PRMT5:MEP50 inhibitory activity; 3H-SAM, 2 h at room temperature, top concentration 10 μM. As for the experimental part: PRMT5:MEP50 Flashplate Assay:
Ten-point curves of inhibitor compounds were made using serial threefold dilutions in DMSO (the final top concentration of compound was 10 μM, 1% DMSO). Reaction mixture consisting of 50 mM Tris-HCl (pH 8.5), 0.002% Tween 20, 0.005% BSA (Bovine Serum Albumin), 1 mM TCEP, and 1% DMSO. Substrates are freshly prepared in reaction buffer. PRMT5:MEP50 was then added into substrate solution and mixed gently. Inhibitor compound was then added and incubated for 30 min at room temperature. ^3H-SAM was added to initiate the reaction. Reactions were incubated for 2 h at room temperature and quenched with 0.5 mM SAM (S-adenosyl-L-Methionine) in assay buffer. An aliquot of the reaction mix was transferred to a streptavidin-coated 384-well FlashPlate (PerkinElmer). After an incubation time of 1 h, the plate was washed and then read on a TopCount (PerkinElmer) to measure the amount of tritium incorporated into the peptide substrate. IC50 was calculated using conventional curve-fitting method.
The compound `Nc1ncnc2c1ccn2[C@@H]1C[C@H](CCc2ccc3cc4c(=O)[nH][nH]c4nc3c2)[C@@H](O)[C@H]1O` [Compound 1-32, 7-(2-((1S,2R,3S,4R)-4-(4-amino-7H-pyrrolo[2,3-d]pyrimidin-7-yl)-2,3-dihydroxycyclopentyl)ethyl)-1,2-dihydro-3H-pyrazolo[3,4-b]quinolin-3-one] came in with an IC50 of 1 to 100 nM.
Consider `Nc1ncnc2c1ccn2[C@@H]1C[C@H](CCc2ccc3cc4c(=O)n(-c5ccccc5)[nH]c4nc3c2)[C@@H](O)[C@H]1O` [Compound 1-33, 7-(2-((1S,2R,3S,4R)-4-(4-amino-7H-pyrrolo[2,3-d]pyrimidin-7-yl)-2,3-dihydroxycyclopentyl)ethyl)-2-phenyl-1,2-dihydro-3H-pyrazolo[3,4-b]quinolin-3-one], for which the IC50 is more than 100 nM.
With `Cn1[nH]c2nc3cc(CC[C@H]4C[C@@H](n5ccc6c(N)ncnc65)[C@H](O)[C@@H]4O)ccc3cc2c1=O` [Compound 1-34, 7-(2-((1S,2R,3S,4R)-4-(4-amino-7H-pyrrolo[2,3-d]pyrimidin-7-yl)-2,3-dihydroxycyclopentyl)ethyl)-2-methyl-1,2-dihydro-3H-pyrazolo[3,4-b]quinolin-3-one] the figure was more than 100 nM; with `Nc1ncnc2c1ccn2[C@@H]1C[C@H](CCc2ccc3cc4c(nc3c2)NCCC4)[C@@H](O)[C@H]1O` [Compound 1-35, (1R,2S,3R,5S)-3-(4-amino-7H-pyrrolo[2,3-d]pyrimidin-7-yl)-5-(2-(1,2,3,4-tetrahydrobenzo[b][1,8]naphthyridin-8-yl)ethyl)cyclopentane-1,2-diol], less than 1 nM; with `C[C@H]1CCc2cc3ccc(CC[C@H]4C[C@@H](n5ccc6c(N)ncnc65)[C@H](O)[C@@H]4O)cc3nc2N1` [Compound 1-36, (1R,2S,3R,5S)-3-(4-amino-7H-pyrrolo[2,3-d]pyrimidin-7-yl)-5-(2-((S)-2-methyl-1,2,3,4-tetrahydrobenzo[b][1,8]naphthyridin-8-yl)ethyl)cyclopentane-1,2-diol], less than 1 nM.
With `C[C@@H]1CCc2cc3ccc(CC[C@H]4C[C@@H](n5ccc6c(N)ncnc65)[C@H](O)[C@@H]4O)cc3nc2N1` [Compound 1-37, (1R,2S,3R,5S)-3-(4-amino-7H-pyrrolo[2,3-d]pyrimidin-7-yl)-5-(2-((R)-2-methyl-1,2,3,4-tetrahydrobenzo[b][1,8]naphthyridin-8-yl)ethyl)cyclopentane-1,2-diol] the figure was less than 1 nM; with `Nc1ncnc2c1ccn2[C@@H]1C[C@H](CCc2ccc3cc4c(nc3c2)N[C@H](C2CC2)CC4)[C@@H](O)[C@H]1O` [Compound 1-38, (1R,2S,3R,5S)-3-(4-amino-7H-pyrrolo[2,3-d]pyrimidin-7-yl)-5-(2-((S)-2-cyclopropyl-1,2,3,4-tetrahydrobenzo[b][1,8]naphthyridin-8-yl)ethyl)cyclopentane-1,2-diol], less than 1 nM; with `CC(C)[C@@H]1CCc2cc3ccc(CC[C@H]4C[C@@H](n5ccc6c(N)ncnc65)[C@H](O)[C@@H]4O)cc3nc2N1` [Compound 1-39, (1R,2S,3R,5S)-3-(4-amino-7H-pyrrolo[2,3-d]pyrimidin-7-yl)-5-(2-((S)-2-isopropyl-1,2,3,4-tetrahydrobenzo[b][1,8]naphthyridin-8-yl)ethyl)cyclopentane-1,2-diol], 1 to 100 nM.
With `Nc1ncnc2c1ccn2[C@@H]1C[C@H](CCc2ccc3cc4c(nc3c2)N[C@H](C2CCC2)CC4)[C@@H](O)[C@H]1O` [Compound 1-40, (1R,2S,3R,5S)-3-(4-amino-7H-pyrrolo[2,3-d]pyrimidin-7-yl)-5-(2-((S)-2-cyclobutyl-1,2,3,4-tetrahydrobenzo[b][1,8]naphthyridin-8-yl)ethyl)cyclopentane-1,2-diol] the figure was 1 to 100 nM; with `Nc1ncnc2c1ccn2[C@@H]1C[C@H](CCc2ccc3cc4c(nc3c2)NCCCC4)[C@@H](O)[C@H]1O` [Compound 1-41, (1R,2S,3R,5S)-3-(4-amino-7H-pyrrolo[2,3-d]pyrimidin-7-yl)-5-(2-(2,3,4,5-tetrahydro-1H-azepino[2,3-b]quinolin-9-yl)ethyl)cyclopentane-1,2-diol], less than 1 nM.
In turn, `CC1(C)CNc2nc3cc(CC[C@H]4C[C@@H](n5ccc6c(N)ncnc65)[C@H](O)[C@@H]4O)ccc3cc21` [Compound 2-3, (1R,2S,3R,5S)-3-(4-amino-7H-pyrrolo[2,3-d]pyrimidin-7-yl)-5-(2-(3,3-dimethyl-2,3-dihydro-1H-pyrrolo[2,3-b]quinolin-7-yl)ethyl)cyclopentane-1,2-diol] gave a concentration for half-maximal inhibition (IC50) of less than 1 nM.
With `Nc1ncnc2c1ccn2[C@@H]1O[C@H](CCc2ccc3cc4c(nc3c2)NCC4)[C@@H](O)[C@H]1O` [Compound 3-8, (2R,3R,4S,5R)-2-(4-amino-7H-pyrrolo[2,3-d]pyrimidin-7-yl)-5-(2-(2,3-dihydro-1H-pyrrolo[2,3-b]quinolin-7-yl)ethyl)tetrahydrofuran-3,4-diol] the figure was 1 to 100 nM; with `CC1(C)CNc2nc3cc(CC[C@H]4O[C@@H](n5ccc6c(N)ncnc65)[C@H](O)[C@@H]4O)ccc3cc21` [Compound 3-9, (2R,3R,4S,5R)-2-(4-amino-7H-pyrrolo[2,3-d]pyrimidin-7-yl)-5-(2-(3,3-dimethyl-2,3-dihydro-1H-pyrrolo[2,3-b]quinolin-7-yl)ethyl)tetrahydrofuran-3,4-diol], 1 to 100 nM; with `NC1=Nc2cc(CC[C@H]3O[C@@H](n4ccc5c(N)ncnc54)[C@H](O)[C@@H]3O)ccc2C2=NCCN12` [Compound 3-10, (2R,3S,4R,5R)-2-(2-(5-amino-2,3-dihydroimidazo[1,2-c]quinazolin-8-yl)ethyl)-5-(4-amino-7H-pyrrolo[2,3-d]pyrimidin-7-yl)tetrahydrofuran-3,4-diol], less than 1 nM.
Under `Nc1ncnc2c1ccn2[C@@H]1O[C@H](CCc2ccc3c(c2)nc(N)n2ccnc32)[C@@H](O)[C@H]1O` [Compound 3-11, (2R,3R,4S,5R)-2-(4-amino-7H-pyrrolo[2,3-d]pyrimidin-7-yl)-5-(2-(5-aminoimidazo-[1,2-c]quinazolin-8-yl)ethyl)tetrahydrofuran-3,4-diol] stands 1 to 100 nM; under `Nc1ncnc2c1ccn2[C@@H]1O[C@H](CCc2ccc3cc4cn[nH]c4nc3c2)[C@@H](O)[C@H]1O` [Compound 3-12, (2R,3S,4R,5R)-2-(2-(1H-pyrazolo[3,4-b]quinolin-7-yl)ethyl)-5-(4-amino-7H-pyrrolo[2,3-d]pyrimidin-7-yl)tetrahydrofuran-3,4-diol], 1 to 100 nM; under `Nc1ncnc2c1ccn2[C@@H]1O[C@H](CCc2ccc3cc4c(nc3c2)NCCC4)[C@@H](O)[C@H]1O` [Compound 3-13, (2R,3R,4S,5R)-2-(4-amino-7H-pyrrolo[2,3-d]pyrimidin-7-yl)-5-(2-(1,2,3,4-tetrahydrobenzo[b][1,8]naphthyridin-8-yl)ethyl)tetrahydrofuran-3,4-diol], less than 1 nM.
With `Nc1ncnc2c1ccn2[C@@H]1C[C@H](CCc2ccc3cc4cc[nH]c4nc3c2)[C@@H](O)[C@H]1O` [Compound 4-3, (1S,2R,3S,5R)-3-(2-(1H-pyrrolo[2,3-b]quinolin-7-yl)ethyl)-5-(4-amino-7H-pyrrolo[2,3-d]pyrimidin-7-yl)cyclopentane-1,2-diol] the figure was 1 to 100 nM.
